{
  "source": "patent US20240108654A1",
  "about": "“COMBINATION OF A T CELL THERAPY AND A DGK INHIBITOR” (Juno Therapeutics, Inc., priority 2021, published 2024)",
  "format_in_all_cases": "cell-based, human",
  "key": {"[1]": {"test_system": "anti-CD19 CAR-expressing T cells", "test": "Rescue treatment of chronically stimulated CAR-T cells: cytokine production (MSD), 2D co-culture", "settings": "48 hours 2D co-culture with K562.CD19, Granta-519, Raji", "description": "Anti-CD19 CAR-expressing T cells, produced as described in Example 1, were chronically stimulated with plate-bound CAR-specific anti-idiotypic antibody for seven days as described in Example 2, but in the absence of Compound 17 during chronic stimulation. Instead, chronically stimulated CAR T cells were treated with Compound 17 during re-challenge with CD19-expressing tumor cells, after which cytolytic activity and cytokine production were assessed.\n(§1) Supernatant was collected after 48 hours from the above co-cultures of chronically stimulated CAR-expressing T cells and CD19-expressing tumor cells. Cytokine production was measured from the supernatant by meso scale discovery (MSD) analysis of the collected cell supernatants. […] Duplicate values for cell compositions manufactured from the two different healthy donors are shown."}, "[2]": {"test_system": "anti-CD19 CAR-expressing T cells", "test": "Cytokine production (MSD) of CAR-T cells concurrently treated during chronic stimulation, 2D co-culture", "settings": "concurrent treatment during chronic stimulation; 48 hours 2D co-culture with K562.CD19, Granta-519, Raji", "description": "To simulate conditions of chronic stimulation, approximately 20,000 anti-CD19 CAR-expressing T cells of a combined CAR-T cell composition produced as described in Example 1 from two healthy adult donors were incubated with 30 μg/mL of plate-bound CAR-specific anti-idiotypic antibody (see, e.g., WO2018/023100) at 37° C. for a period of seven days. During this seven-day period, engineered CAR T cells were concurrently treated with Compound 17 (0.1-1000 nM) or a vehicle control added at day 0.\nStimulated CAR T cells were then re-challenged with CD19-expressing tumor cells or tumor spheroids in the absence of Compound 17, and cytolytic activity and cytokine production were assessed.\nas §1"}, "[3]": {"test_system": "anti-CD19 CAR-expressing T cells", "test": "Cytolytic function of CAR-T cells co-cultured with CD19-expressing lymphoma cells in presence of compound", "settings": "co-culture with K562.CD19, Granta-519 and Raji cells, 2.5:1 effector:target, compound present", "description": "The cytolytic function of T cells treated with Compound 17 was assessed following co-culture of the combined CAR-T cell composition with various CD19-expressing lymphoma cells at a 2.5:1 effector:target ratio in the presence of Compound 17. The target lymphoma cells were labeled with NucLight Red (NLR) to permit their tracking by microscopy. Cytolytic activity was assessed by measuring the loss of viable target cells over a period of four to seven days, as determined by red fluorescent signal (using the IncuCyte® Live Cell Analysis System, Essen Bioscience).\nTriplicate values for cell compositions manufactured from the two different healthy donors are shown."}, "[4]": {"test_system": "anti-CD19 CAR-expressing T cells", "test": "Activated effector phenotype of CD4+ and CD8+ CAR-expressing cells under acute stimulation"}},
  "data": [
    {"smiles": "CC[C@H]1CN([C@@H](CC)c2ccc(C(F)(F)F)cc2)[C@H](CC)CN1c1nc(=O)n(C)c2ccc(C#N)nc12", "note": "[Compound 17, 4-((2S,5R)-2,5-diethyl-4-((S)-1-(4-(trifluoromethyl)phenyl)propyl)piperazin-1-yl)-1-methyl-2-oxo-1,2-dihydropyrido[3,2-d]pyrimidine-6-carbonitrile]", "values": [
      {"measurement": "production of IFNγ, IL-2 and TNFα in supernatant", "setting": "[1]", "result": "dose-dependent increase in production of all three cytokines"},
      {"measurement": "production of IFNγ, IL-2 and TNFα in supernatant", "setting": "[2]", "result": "dose-dependent increase in production of all three cytokines"},
      {"measurement": "cytolytic function (percent specific lysis)", "setting": "[3]", "result": "did not affect cytolytic function"},
      {"measurement": "number of CD4+ and CD8+ CAR-expressing cells having an activated effector phenotype", "setting": "[4]", "result": "increased"}
    ]}
  ]
}
